{
  "source": "patent US20210285949A1",
  "about": "(priority 2020, published 2021)",
  "key": {"[1]": {"test_system": "patients with septic shock and elevated adrenomedullin", "experiment": "AdrenOSS-2 phase II clinical trial", "assay_type": "in vivo, human", "excerpt": "AdrenOSS-2 is a double-blind, placebo-controlled, randomized, multicenter, proof of concept and dose-finding phase II clinical trial to investigate the safety, tolerability and efficacy of the N-terminal ADM antibody named Adrecizumab in patients with septic shock and elevated adrenomedullin (Geven et al. BMJ Open 2019; 9:e024475). In total, 301 patients with septic shock and bio-ADM concentration >70 pg/mL were randomized (2:1:1) to treatment with a single intravenous infusion over approximately 1 hour with either placebo (n=152), adrecizumab […] (n=72) or Adrecizumab […] (n=77). All-cause mortality within 28 (90) days after inclusion was 25.8% (34.8%). Mean age was 68.4 years and 61% were male. For the per protocol analysis, n=294 patients remained eligible, and 14-day all-cause mortality rate was 18.5%.\nFurthermore, different subpopulations of the cohort were analyzed. Main outcomes were 28-day mortality, change in Horovitz Index (PaO2/FiO2) (at 24 h/48 h/72 h), change in SOFA score (at 24 h/48 h/72 h) or change in respiratory SOFA score component (also based on PaO2/FiO2) (at 24 h/48 h/72 h). All p-values are 2-sided and a p-value of 0.20 should be considered significant."}, "endotoxemic rats": {"test_system": "endotoxemic rats", "settings": "pre-treatment; cited from earlier work"}, "[2]": {"test_system": "extreme-critically ill COVID-19 patients with acute respiratory distress syndrome (ARDS)", "settings": "cited from earlier work"}, "[3]": {"settings": "cited from earlier work"}, "[4]": {"test_system": "mice with CLP-induced sepsis", "settings": "pre-treatment, cited from earlier work"}},
  "note": "Where two headings read alike, the source gives them in different places.",
  "data": [
    {"substance": "Adrecizumab: humanized N-terminal anti-ADM monoclonal antibody, heavy chain SEQ ID NO: 35, light chain SEQ ID NO: 36", "values": [
      {"measurement": "change in Horovitz-Index", "setting": "[1]; Horovitz-Index <170 and mechanical ventilation (n=48), after 24 hours (0.48)", "value": "trended to be higher"},
      {"measurement": "change in SOFA score vs placebo", "setting": "[1]; Horovitz-Index <170 and mechanical ventilation (n=48), after 24 hours, p=0.032", "value": "significantly lower"},
      {"measurement": "change in SOFA score vs placebo", "setting": "[1]; Horovitz-Index <170 and mechanical ventilation (n=48), after 48 hours, p=0.012", "value": "significantly lower"},
      {"measurement": "change in Horovitz-Index, mean increase", "setting": "[1]; Horovitz-Index <170 and mechanical ventilation (n=48), after 48 hours, p=0.09", "value": 64.2},
      {"measurement": "change in SOFA score vs placebo", "setting": "[1]; Horovitz-Index <170 and mechanical ventilation (n=48), after 72 hours, p=0.028", "value": "significantly lower"},
      {"measurement": "change in Horovitz-Index, mean increase", "setting": "[1]; Horovitz-Index <170 and mechanical ventilation (n=48), after 72 hours, p=0.11", "value": 66.4},
      {"measurement": "28-day mortality vs placebo", "setting": "[1]; Horovitz-Index <170 and mechanical ventilation at baseline (n=48), p=0.37", "value": "trended to be lower"},
      {"measurement": "change in SOFA score vs placebo", "setting": "[1]; mechanical ventilation at baseline (n=161), after 24 hours, p=0.002", "value": "significantly lower"},
      {"measurement": "change in respiratory SOFA score vs placebo", "setting": "[1]; mechanical ventilation at baseline (n=161), after 24 hours, p=0.021", "value": "significantly lower"},
      {"measurement": "change in Horovitz-Index", "setting": "[1]; mechanical ventilation at baseline (n=161), after 48 hours, p=0.007", "value": "significantly higher"},
      {"measurement": "change in respiratory SOFA score vs placebo", "setting": "[1]; mechanical ventilation at baseline (n=161), after 48 hours, p=0.011", "value": "significantly lower"},
      {"measurement": "change in SOFA score vs placebo", "setting": "[1]; mechanical ventilation at baseline (n=161), after 48 hours, p=0.109", "value": "significantly lower"},
      {"measurement": "change in respiratory SOFA score vs placebo", "setting": "[1]; mechanical ventilation at baseline (n=161), after 72 hours, p=0.066", "value": "significantly lower"},
      {"measurement": "change in Horovitz-Index", "setting": "[1]; mechanical ventilation at baseline (n=161), after 72 hours, p=0.087", "value": "significantly higher"},
      {"measurement": "change in SOFA score vs placebo", "setting": "[1]; mechanical ventilation at baseline (n=161), after 72 hours, p=0.31", "value": "trended to be lower"},
      {"measurement": "change in Horovitz-Index, mean increase", "setting": "[1]; mechanical ventilation at baseline (n=161), at 24 hours, p=0.155", "value": 56.2},
      {"measurement": "28-day mortality vs placebo", "setting": "[1]; mechanical ventilation at baseline (n=161), p=0.157", "value": "significantly lower"},
      {"measurement": "change in SOFA score vs placebo", "setting": "[1]; shock patients with ALI/ARDS (n=80), after 24 hours, p=0.005", "value": "significantly lower"},
      {"measurement": "change in respiratory SOFA score vs placebo", "setting": "[1]; shock patients with ALI/ARDS (n=80), after 24 hours, p=0.26", "value": "trended to be lower"},
      {"measurement": "change in SOFA score vs placebo", "setting": "[1]; shock patients with ALI/ARDS (n=80), after 48 hours, p=0.025", "value": "significantly lower"},
      {"measurement": "change in respiratory SOFA score vs placebo", "setting": "[1]; shock patients with ALI/ARDS (n=80), after 48 hours, p=0.09", "value": "significantly lower"},
      {"measurement": "change in SOFA score vs placebo", "setting": "[1]; shock patients with ALI/ARDS (n=80), after 72 hours, p=0.38", "value": "trended to be lower"},
      {"measurement": "renal vascular leakage", "setting": "endotoxemic rats", "value": "attenuated"},
      {"measurement": "mortality", "setting": "[2]; compared with mortality calculated by the SOFA score", "value": "lower than expected"},
      {"measurement": "PaO2/FiO2", "setting": "[2]; single dose, within 12 days", "value": "increased"},
      {"measurement": "SOFA score and disease severity score", "setting": "[2]; single dose, within 12 days", "value": "decreased in five out of the seven surviving patients"},
      {"measurement": "inflammatory parameters C-reactive protein, procalcitonin, and interleukin-6", "setting": "[2]; single dose", "value": "decreased"},
      {"measurement": "circulating ADM following administration", "setting": "[3]; animal and human data", "value": "potent, dose-dependent increase"},
      {"measurement": "safety and tolerability, serious adverse events", "setting": "[3]; phase I study", "value": "no serious adverse events were observed"},
      {"measurement": "renal vascular leakage", "setting": "[4]; mice with CLP-induced sepsis", "value": "attenuated"},
      {"measurement": "7-day survival", "setting": "[4]; repeated dose administration (control 0%)", "value": 40, "unit": "%"},
      {"measurement": "7-day survival", "setting": "[4]; single dose administration (control 10%)", "value": 50, "unit": "%"}
    ]}
  ]
}
